In patent US20210345611A1, “EXTENDED AND CONTINUOUS RELEASE COMPOSITIONS FOR PLANT HEALTH AND METHOD OF USE” (Verdesian Life Sciences U.S., LLC, priority 2018, published 2021):

Assay: PGA stability in 250 mM sodium phosphate aqueous buffers (HPLC)
Type: physicochemical
Experimental: Analytical note: PGA measurements in this section are done on a free acid basis using HPLC techniques, with PGA peak in each analysis checked for purity using UV-Vis spectroscopy technique by comparison with a known standard reference material. Experiments were conducted to determine the relative stability of PGA to degradation in 250 mM sodium phosphate aqueous buffers at pH levels of interest representing pH levels commonly found in soils. PGA is sufficiently stable at the pH levels of interest. PGA/pH 5.75 L-Pyroglutamic acid was dissolved to a concentration of about 1.0% in 250 mM sodium phosphate aqueous buffer at pH of 5.75, and stored for 24 hours at 50 degrees C. […] PGA/pH 6.75 L-Pyroglutamic acid was dissolved to a concentration of about 1.0% in 250 mM sodium phosphate aqueous buffer at pH of 6.75, and stored for 24 hours at 50 degrees C. […] PGA/pH 7.75 L-Pyroglutamic acid was dissolved to a concentration of about 1.0% in 250 mM sodium phosphate aqueous buffer at pH of 7.75, and stored for 24 hours at 50 degrees C.

Measured: decomposition by HPLC analysis

O=C1CC[C@@H](C(=O)O)N1 [L-Pyroglutamic acid]
No detectable decomposition: about 1.0% in 250 mM sodium phosphate buffer pH 5.75, 24 hours at 50 degrees C | about 1.0% in 250 mM sodium phosphate buffer pH 6.75, 24 hours at 50 degrees C | about 1.0% in 250 mM sodium phosphate buffer pH 7.75, 24 hours at 50 degrees C
